Test results: patent publication US20040235019A1, “Diagnostics and therapeutics for the gene expression signature of PPAR-gamma receptor ligand” (Agouron Pharmaceuticals, Inc., priority 2003, published 2004)

Experiments:
[1] = patients; personal communication (Heidi Camp, Pfizer Inc); cited from earlier work
3T3-L1 cells = test: Gene profile of 3T3-L1 cells treated with Rosiglitazone after PPARγ1 antisense knockdown; assay type: cell-based, murine; conditions: antisense 72 hours
Procedure: 3T3-L1 cells were treated for 72 hours with an antisense construct whose nucleic acid sequence was complementary to PPARγ1 and treated with Rosiglitazone. As a separate control, 3T3-L1 were cells treated with the antisense construct, but without Rosiglitazone. Gene expression levels were determined using Affymetix microarray analysis. Following the incubation, RNA was extracted from the cells using Trizol (Invitrogen) followed by cleanup using an RNeasy kit (Qiagen) including DNase I treatment. Probes from each of these cell populations were prepared by reverse transcription-polymerase chain reaction (RT-PCR) and subsequently biotin labeled by in vitro transcription using the BioArray High Yield RNA Transcript Labeling Kit (Enzo). The probes were then hybridized to U74Aver2 Affymetrix gene chips. The hybridization was conducted as follows The hybridization was for 16 hours at 45° C. and 60 RPM in a rotisserie box.

| SMILES | incidence of edema clinically [1] | genes of Tables I and II also up- or down-regulated by Rosiglitazone in cells treated with PPARγ1 antisense nucleic acid (3T3-L1 cells) [%] |
| --- | --- | --- |
| Cc1oc(-c2ccccc2)nc1CCOc1ccc(C[C@H](Nc2ccccc2C(=O)c2ccccc2)C(=O)O)cc1 [Farglitazar] | most frequent incidence of edema clinically |  |
| CN(CCOc1ccc(CC2SC(=O)NC2=O)cc1)c1ccccn1 (centres unmarked) [Rosiglitazone] |  | 91 |
